pEC50: −log10 of the molar value.
system: HCV replicon (HCV 1b-377-neo replicon cells, Huh7); experiment: HCV replicon cell-based FRET assay; details: Hepatitis C virus, Huh-7
In short: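 Huh7 cells carrying a neo-selectable genotype 1b HCV replicon (~3,000 RNA copies/cell) were seeded at 1.5×10^4 cells/well and treated 4 days at 37 °C (0.5% DMSO final). CC50 was read by alamar Blue (4 h, ex 530/em 580 nm). Lysates with 10 μM EDANS/DABCYL NS3 protease FRET peptide were read kinetically (ex 340/em 490 nm, 25 °C, ~15 min) for % inhibition.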

`CC(C)(C)CC(C)(C)NC(=O)NC1CCCCCC=CC2CC2(C(=O)NS(=O)(=O)C2CC2)NC(=O)C2CC(Oc3nccc4ccccc34)CN2C1=O` (centres unmarked) [Compound 129] and `CC(C)(C)NC(=O)N[C@H]1CCCCC/C=C\[C@@H]2C[C@@]2(C(=O)NS(=O)(=O)C2CC2)NC(=O)[C@@H]2C[C@@H](Oc3nccc4ccccc34)CN2C1=O` [Compound 126] cannot be ordered by pEC50: over 7.30 for the first, over 7.30 for the second.

First: CC(C)(C)OC(=O)N[C@H]1CNCCC/C=C\[C@@H]2C[C@@]2(C(=O)NS(=O)(=O)C2CC2)NC(=O)[C@@H]2C[C@@H](Oc3nccc4ccccc34)CN2C1=O [Compound 151]
Second: CN1CCC/C=C\[C@@H]2C[C@@]2(C(=O)NS(=O)(=O)C2CC2)NC(=O)[C@@H]2C[C@@H](Oc3nccc4ccccc34)CN2C(=O)[C@@H](NC(=O)OC(C)(C)C)C1 [Compound 147]
The pEC50 of the first is lower: 6.30 to 7.30 for the first, over 7.30 for the second. The second is the more potent here.

First: COc1ccc2c(OC3CC4C(=O)NC5(C(=O)NS(=O)(=O)C6CC6)CC5C=CCCCSC(C)(C)C(N)C(=O)N4C3)nccc2c1 (centres unmarked) [Compound 83]
Second: COc1ccc2c(O[C@@H]3C[C@H]4C(=O)N[C@]5(C(=O)NS(=O)(=O)C6CC6)C[C@H]5/C=C\CCCSC(C)(C)[C@H](NC(=O)OC(C)(C)C)C(=O)N4C3)nccc2c1 [Compound 80, (1S,4R,6S,14R,18R)-[7-cis-4-Cyclopropanesulfonylaminocarbonyl-13,13-dimethyl-18-(6-methoxyisoquinolin-1-yloxy)-2,15-dioxo-12-thia-3,16-diaza-tricyclo[14.3.0.0^4,6]nonadec-7-en-14-yl]carbamic acid, tert-butyl ester]
The pEC50 of the first is lower: 4.30 to 5.30 for the first, 6.30 to 7.30 for the second. The second is the more potent here.

`COc1ccc2c(OC3CC4C(=O)NC5(C(=O)NS(=O)(=O)C6CC6)CC5C=CCCCOCC(NC(=O)OCC(C)(C)C)C(=O)N4C3)nc(-c3ccccc3)cc2c1` (centres unmarked) [Compound 95] and `COc1ccc2c(OC3CC4C(=O)NC5(C(=O)NS(=O)(=O)C6CC6)CC5C=CCOCCCC(NC(=O)OCC(C)(C)C)C(=O)N4C3)nc(-c3ccccc3)cc2c1` (centres unmarked) [Compound 103] cannot be ordered by pEC50: over 7.30 for the first, over 7.30 for the second.

`COc1ccc2c(OC3CC4C(=O)NC5(C(=O)NS(=O)(=O)C6CC6)CC5C=CCCCOCC(NC(=O)OC(C)C)C(=O)N4C3)nc(-c3ccc(N(C)C)cc3)cc2c1` (centres unmarked) [Compound 109] and `COc1ccc2c(OC3CC4C(=O)NC5(C(=O)NS(=O)(=O)C6CC6)CC5C=CCCCOCC(NC(=O)OC5CCCC5)C(=O)N4C3)nc(-c3ccc(N(C)C)cc3)cc2c1` (centres unmarked) [Compound 110] cannot be ordered by pEC50: over 7.30 for the first, over 7.30 for the second.

`COc1ccc2c(OC3CC4C(=O)NC5(C(=O)NS(=O)(=O)C6CC6)CC5C=CCOCCCC(NC(=O)OC(C)C)C(=O)N4C3)nc(-c3ccccc3)cc2c1` (centres unmarked) [Compound 98] and `COc1ccc2c(OC3CC4C(=O)NC5(C(=O)NS(=O)(=O)C6CC6)CC5C=CCOCCCC(NC(=O)OC5CCCC5)C(=O)N4C3)nc(-c3ccccc3)cc2c1` (centres unmarked) [Compound 99] cannot be ordered by pEC50: over 7.30 for the first, over 7.30 for the second.

First: CC(C)(C)COC(=O)N1CCCC=CC2CC2(C(=O)NS(=O)(=O)C2CC2)NC(=O)C2CC(Oc3nccc4ccccc34)CN2C(=O)C(NC(=O)OC(C)(C)C)C1 (centres unmarked) [Compound 149]
Second: CC(=O)N1CCC/C=C\[C@@H]2C[C@@]2(C(=O)NS(=O)(=O)C2CC2)NC(=O)[C@@H]2C[C@@H](Oc3nccc4ccccc34)CN2C(=O)[C@@H](NC(=O)OC(C)(C)C)C1 [Compound 146]
The pEC50 of the first is higher: 6.30 to 7.30 for the first, 5.30 to 6.30 for the second. The first is the more potent here.

`COc1ccc2c(O[C@@H]3C[C@H]4C(=O)N[C@]5(C(=O)NS(=O)(=O)C6CC6)C[C@H]5/C=C\CCCOC[C@H](NC(=O)OC(C)(C)C)C(=O)N4C3)nccc2c1` [Compound 85, (1S,4R,6S,14S,18R)-[7-cis-4-Cyclopropanesulfonylaminocarbonyl-18-(6-methoxy-isoquinolin-1-yloxy)-2,15-dioxo-12-oxa-3,16-diaza-tricyclo[14.3.0.0^4,6]nonadec-7-en-14-yl]-carbamic acid, tert-butyl ester] and `COc1ccc2c(OC3CC4C(=O)NC5(C(=O)NS(=O)(=O)C6CC6)CC5C=CCCCOCC(NC(=O)OCC(C)(C)C)C(=O)N4C3)nccc2c1` (centres unmarked) [Compound 88] cannot be ordered by pEC50: over 7.30 for the first, over 7.30 for the second.

First: CC(=O)C(C)(C)OC(=O)NC1CCCCCC=CC2CC2(C(=O)NS(=O)(=O)C2CC2)NC(=O)C2CC(Oc3nccc4ccccc34)CN2C1=O (centres unmarked) [Compound 123]
Second: CCC(C)(C)OC(=O)NC1CCCCCC=CC2CC2(C(=O)NS(=O)(=O)C2CC2)NC(=O)C2CC(Oc3nccc4ccccc34)CN2C1=O (centres unmarked) [Compound 125]
The pEC50 of the first is lower: 6.30 to 7.30 for the first, over 7.30 for the second.

`CC(C)(OC(=O)NC1CCCCCC=CC2CC2(C(=O)NS(=O)(=O)C2CC2)NC(=O)C2CC(Oc3nccc4ccccc34)CN2C1=O)C(Cl)(Cl)Cl` (centres unmarked) [Compound 124] and `CC(C)NC(=O)NC1CCCCCC=CC2CC2(C(=O)NS(=O)(=O)C2CC2)NC(=O)C2CC(Oc3nccc4ccccc34)CN2C1=O` (centres unmarked) [Compound 128] cannot be ordered by pEC50: over 7.30 for the first, over 7.30 for the second.

`COc1ccc2c(OC3CC4C(=O)NC5(C(=O)NS(=O)(=O)C6CC6)CC5C=CCCCOCC(NC(=O)N5CCCC5)C(=O)N4C3)nc(-c3ccccc3)cc2c1` (centres unmarked) [Compound 93] and `COc1ccc2c(OC3CC4C(=O)NC5(C(=O)NS(=O)(=O)C6CC6)CC5C=CCOCCCC(NC(=O)N5CCCC5)C(=O)N4C3)nc(-c3ccccc3)cc2c1` (centres unmarked) [Compound 100] cannot be ordered by pEC50: over 7.30 for the first, over 7.30 for the second.

`COc1ccc2c(OC3CC4C(=O)NC5(C(=O)NS(=O)(=O)C6CC6)CC5C=CCOCCCC(NC(=O)OC(C)(C)C)C(=O)N4C3)nc(-c3ccc(N(C)C=O)cc3)cc2c1` (centres unmarked) [Compound 114] and `CNc1ccc(-c2cc3cc(OC)ccc3c(OC3CC4C(=O)NC5(C(=O)NS(=O)(=O)C6CC6)CC5C=CCOCCCC(NC(=O)OC(C)(C)C)C(=O)N4C3)n2)cc1` (centres unmarked) [Compound 113] cannot be ordered by pEC50: over 7.30 for the first, over 7.30 for the second.

`COc1ccc2c(OC3CC4C(=O)NC5(C(=O)NS(=O)(=O)C6CC6)CC5C=CCCCOCC(NC(=O)NC(C)(C)C)C(=O)N4C3)nc(-c3ccccc3)cc2c1` (centres unmarked) [Compound 92] and `COc1ccc2c(OC3CC4C(=O)NC5(C(=O)NS(=O)(=O)C6CC6)CC5C=CCCCOCC(NC(=O)NC(C)(C)C)C(=O)N4C3)nccc2c1` (centres unmarked) [Compound 86] cannot be ordered by pEC50: over 7.30 for the first, over 7.30 for the second.

`COc1ccc2c(OC3CC4C(=O)NC5(C(=O)NS(=O)(=O)C6CC6)CC5C=CCCCOCC(NC(=O)OC5CCCC5)C(=O)N4C3)nccc2c1` (centres unmarked) [Compound 90] and `COc1ccc2c(OC3CC4C(=O)NC5(C(=O)NS(=O)(=O)C6CC6)CC5C=CCCCOCC(NC(=O)NC5CCCC5)C(=O)N4C3)nccc2c1` (centres unmarked) [Compound 87] cannot be ordered by pEC50: over 7.30 for the first, over 7.30 for the second.

`CC1(COC(=O)NC2CCCCCC=CC3CC3(C(=O)NS(=O)(=O)C3CC3)NC(=O)C3CC(Oc4nccc5ccccc45)CN3C2=O)CC1` (centres unmarked) [Compound 122] and `CCSC(=O)NC1CCCCCC=CC2CC2(C(=O)NS(=O)(=O)C2CC2)NC(=O)C2CC(Oc3nccc4ccccc34)CN2C1=O` (centres unmarked) [Compound 118] cannot be ordered by pEC50: over 7.30 for the first, over 7.30 for the second.

`CC(C)(C)OC(=O)N[C@H]1CN(S(=O)(=O)c2ccccc2[N+](=O)[O-])CCC/C=C\[C@@H]2C[C@@]2(C(=O)NS(=O)(=O)C2CC2)NC(=O)[C@@H]2C[C@@H](Oc3nccc4ccccc34)CN2C1=O` [Compound 145] and `CC(C)(C)OC(=O)NC1CN(C(=O)C2CC2)CCCC=CC2CC2(C(=O)NS(=O)(=O)C2CC2)NC(=O)C2CC(Oc3nccc4ccccc34)CN2C1=O` (centres unmarked) [Compound 152] fall in the same range of pEC50: 6.30 to 7.30 for the first, 6.30 to 7.30 for the second.

`COc1ccc2c(OC3CC4C(=O)NC5(C(=O)NS(=O)(=O)C6CC6)CC5C=CCOCCCC(NC(=S)NC5CC5)C(=O)N4C3)nc(-c3ccccc3)cc2c1` (centres unmarked) [Compound 104] and `COc1ccc2c(OC3CC4C(=O)NC5(C(=O)NS(=O)(=O)C6CC6)CC5C=CCOCCCC(NC(=O)Nc5ccc(C#N)cc5)C(=O)N4C3)nc(-c3ccccc3)cc2c1` (centres unmarked) [Compound 105] fall in the same range of pEC50: 6.30 to 7.30 for the first, 6.30 to 7.30 for the second.

Compared with `COc1ccc2c(OC3CC4C(=O)NC5(C(=O)NS(=O)(=O)C6CC6)CC5C=CCCCCCC(NC(=O)OC(C)(C)C)C(=O)N4C3)nccc2c1F` (centres unmarked) [Compound 132], `COc1ccc2c(O[C@@H]3C[C@H]4C(=O)N[C@]5(C(=O)NS(=O)(=O)C6CC6)C[C@H]5/C=C\COCC[C@H](NC(=O)OC(C)(C)C)C(=O)N4C3)nccc2c1` [Compound 141, [(Z)-(1S,4R,13S,17R)-4-cyclopropanesulfonylaminocarbonyl-17-(6-methoxy-isoquinolin-1-yloxy)-2,14-dioxo-10-oxa-3,15-diaza-tricyclo[13.3.0.0^4,6]octadec-7-en-13-yl]-carbamic acid tert-butyl ester] is lower in pEC50: over 7.30 for the first, 5.30 to 6.30 for the second. The first is the more potent here.

`O=C(NC1CCCC1)NC1CCCCCC=CC2CC2(C(=O)NS(=O)(=O)C2CC2)NC(=O)C2CC(Oc3nccc4ccccc34)CN2C1=O` (centres unmarked) [Compound 127] and `COc1ccc2c(OC3CC4C(=O)NC5(C(=O)NS(=O)(=O)C6CC6)CC5C=CCCCOCC(NC(=O)OC(C)C)C(=O)N4C3)nccc2c1` (centres unmarked) [Compound 89] cannot be ordered by pEC50: over 7.30 for the first, over 7.30 for the second.

From patent publication US7173004B2, “Macrocyclic isoquinoline peptide inhibitors of hepatitis C virus” (Bristol-Myers Squibb Company, priority 2003, dated 2007)
